Test results as given in patent publication US5122523A, “N-acylamino acid derivatives and their pharmaceutical compositions” (Banyu Pharmaceutical Co., Ltd., priority 1987, dated 1992).

target: T1, human plasma renin (Homo sapiens, UniProt P00797); experiment: Renin inhibiting activities (human plasma, angiotensin I by radioimmunoassay); format: biochemical; details: pH7.4, 37° C., one hour
T1 construct: from tissue; host or cells: human plasma
T1 sequence (P00797 67-406): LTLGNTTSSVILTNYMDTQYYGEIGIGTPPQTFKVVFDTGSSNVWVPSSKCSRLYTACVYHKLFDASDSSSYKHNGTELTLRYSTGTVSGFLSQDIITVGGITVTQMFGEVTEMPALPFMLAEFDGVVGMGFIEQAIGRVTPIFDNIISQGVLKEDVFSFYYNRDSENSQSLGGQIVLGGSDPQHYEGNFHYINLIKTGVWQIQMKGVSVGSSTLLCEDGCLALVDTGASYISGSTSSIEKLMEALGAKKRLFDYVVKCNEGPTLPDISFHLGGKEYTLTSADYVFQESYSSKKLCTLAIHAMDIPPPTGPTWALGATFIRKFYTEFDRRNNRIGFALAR
Protocol: TEST EXAMPLE 1: Renin inhibiting activities
To 156 μl of a 0.2M sodium phosphate buffer solution (pH7.4), 40 μl of a solution mixture of 34 mM 8-hydroxyquinoline and 100 mM disodium ethylenediamine tetraacetate, 4 μl of dimethyl sulfoxide or a dimethyl sulfoxide solution of an inhibitor and 200 μl of human plasma were added and reacted at 37° C. for one hour. Then, pepstatin was added thereto to terminate the reaction, and the amount of the resulting angiotension I was measured by radio immunoassay whereby the inhibiting activity was determined.

| SMILES | IC50 |
| --- | --- |
| CCCC[C@H](NC(=O)[C@H](Cc1cccc2ccccc12)CS(=O)(=O)CC)C(=O)N[C@@H](CC1CCCCC1)C(O)C(O)CSC (single isomer, unassigned) [Example 21, (2RS,3R or S,4S)-4-{L-N-[(2S)-3-ethylsulfonyl-2-(1-naphthylmethyl)propionyl]norleucyl}amino-5-cyclohexyl-1-methylthio-2,3-pentanediol] | 8.9 nM |
| CC(C)[S+]([O-])C[C@@H](Cc1cccc2ccccc12)C(=O)N[C@@H](Cc1c[nH]cn1)C(=O)N[C@@H](CC1CCCCC1)[C@@H](O)[C@@H](O)CN1CCOCC1 (stereo partly drawn) [Example 35, (2S,3R,4S)-4-{L-N^α -[(2S)-3-isopropylsulfinyl-2-(1-naphthylmethyl)propionyl]histidyl}amino-5-cyclohexyl-1-morpholino-2,3-pentanediol] | 5.9 nM |
| CCCC[C@H](NC(=O)[C@H](Cc1cccc2ccccc12)C[S+]([O-])CC)C(=O)N[C@@H](CC1CCCCC1)[C@@H](O)[C@@H](O)CN1CCOCC1 (stereo partly drawn) [Example 49(A), (2S,3R,4S)-4-{L-N-[(2S)-3-ethylsulfinyl-2-(1-naphthylmethyl)propionyl]norleucyl}amino-5-cyclohexyl-1-morpholino-2,3-pentanediol] | 6.1 nM |
| CCCC[C@H](NC(=O)[C@@H](CSc1ncccn1)Cc1cccc2ccccc12)C(=O)N[C@@H](CC1CCCCC1)[C@@H](O)[C@@H](O)CN1CCOCC1 [Example 40, (2S,3R,4S)-4-{L-N-[(2S)-2-(1-naphthylmethyl)-3-(pyrimidin-2-yl)thiopropionyl]norleucyl}amino-5-cyclohexyl-1-morpholino-2,3-pentanediol] | 5.3 nM |
| CCS(=O)(=O)C[C@@H](Cc1cccc2ccccc12)C(=O)N[C@@H](Cc1c[nH]cn1)C(=O)N[C@@H](CC1CCCCC1)[C@@H](O)[C@@H](O)CN1CCOCC1 [Example 31, (2S,3R,4S)-4-{L-N^α -[(2S)-3-ethylsulfonyl-2-(1-naphthylmethyl)propionyl]histidyl}amino-5-cyclohexyl-1-morpholino-2,3-pentanediol] | 4.2 nM |
| CCCC[C@H](NC(=O)[C@H](Cc1cccc2ccccc12)CS(=O)(=O)CC)C(=O)N[C@@H](CC(C)C)[C@@H](O)[C@@H](O)CN1CCOCC1 [Example 19, (2S,3R,4S)-4-{L-N-[(2S)-3-ethylsulfonyl-2-(1-naphthylmethyl)propionyl]norleucyl}amino-6-methyl-1-morpholino-2,3-heptanediol] | 8.3 nM |
| CCCC[C@H](NC(=O)[C@H](Cc1cccc2ccccc12)CS(=O)(=O)C(C)(C)C)C(=O)N[C@@H](CC1CCCCC1)[C@@H](O)[C@@H](O)CN1CCOCC1 [Example 38, (2S,3R,4S)-4-{L-N-[(2S)-3-tert-butylsulfonyl-2-(1-naphthylmethyl)propionyl]norleucyl}amino-5-cyclohexyl-1-morpholino-2,3-pentanediol] | 5.9 nM |
| CCCC[C@H](NC(=O)[C@H](Cc1ccccc1)CS(=O)(=O)c1ncccn1)C(=O)N[C@@H](CC1CCCCC1)[C@@H](O)[C@@H](O)CN1CCOCC1 [Example 44, (2S,3R,4S)-4-{L-N-[(2S)-2-benzyl-3-(pyrimidin-2-yl)sulfonylpropionyl]norleucyl}amino-5-cyclohexyl-1-morpholino-2,3-pentanediol] | 3.8 nM |
| CCC(C[C@H](O)[C@H](CC(C)C)NC(=O)[C@H](Cc1c[nH]cn1)NC(=O)[C@H](Cc1cccc2cccnc12)CS(=O)(=O)CC)C(=O)NCC(C)C (stereo partly drawn) [Example 11, (2RS,4S,5S)-5-{L-N^α -[2(S)-3-ethylsulfonyl-2-(8-quinolylmethyl)propionyl]histidyl}amino-2-ethyl-4-hydroxy-7-methyloctanoic acid isobutylamide] | 3.1 nM |
| CCCC[C@H](NC(=O)C(Cc1cccc2ccccc12)CS(=O)(=O)CCO)C(=O)N[C@@H](CC1CCCCC1)[C@@H](O)[C@@H](O)CN1CCOCC1 (single isomer, unassigned) [Example 36, (2S,3R,4S)-4-{L-N-[(2S or R)-3-(2-hydroxyethyl)sulfonyl-2-(1-naphthylmethyl)propionyl]norleucyl}amino-5-cyclohexyl-1-morpholino-2,3-pentanediol] | 2.7 nM |
| CCCC[C@H](NC(=O)[C@H](Cc1ccccc1)CS(=O)(=O)C1CCCC1)C(=O)N[C@@H](CC1CCCCC1)[C@@H](O)[C@@H](O)C[N+]1([O-])CCOCC1 [Example 52, N-[(2S,3R,4S)-4-[L-N-[(2S)-3-cyclopentanesulfonyl-2-benzylpropionyl]norleucyl]amino-5-cyclohexyl-2,3-dihydroxypentyl]morpholine N-oxide] | 3 nM |
| CCCC[C@H](NC(=O)[C@H](Cc1cccc2ccccc12)C[S+]([O-])c1ncccn1)C(=O)N[C@@H](CC1CCCCC1)[C@@H](O)[C@@H](O)CN1CCOCC1 (single isomer, unassigned) [Example 42] | 3.6 nM |

Molecules with a lower IC50, results first:

| IC50 | SMILES |
| --- | --- |
| 0.5 nM | CCCC[C@H](NC(=O)C(Cc1cccc2ccccc12)CS(=O)(=O)CC)C(=O)N[C@@H](CC(C)C)[C@@H](O)CC(CC)C(=O)NCC(C)C (single isomer, unassigned) [Example 1, (2RS,4S,5S)-5-{L-N-[(2R or S)-3-ethylsulfonyl-2-(1-naphthylmethyl)propionyl]norleucyl}amino-2-ethyl-4-hydroxy-7-methyloctanoic acid isobutylamide] |
| 1.7 nM | CCCC[C@H](NC(=O)[C@H](Cc1cccc2ccccc12)CS(=O)(=O)c1ncccn1)C(=O)N[C@@H](CC1CCCCC1)[C@@H](O)[C@@H](O)CN1CCOCC1 [Example 41, (2S,3R,4S)-4-{L-N-[(2S)-2-(1-naphthylmethyl)-3-(pyrimidin-2-yl)sulfonylpropionyl]norleucyl}amino-5-cyclohexyl-1-morpholino-2,3-pentanediol] |
| 2 nM | CCCC[C@H](NC(=O)[C@H](Cc1ccccc1)CS(=O)(=O)Cc1ccco1)C(=O)N[C@@H](CC1CCCCC1)[C@@H](O)[C@@H](O)CN1CCOCC1 [Example 56, (2S,3R,4S)-4-{L-N-[(2S)-2-benzyl-3-furfurylsulfonylpropionyl]norleucyl}amino-5-cyclohexyl-1-morpholino-2,3-pentanediol] |
| 1.9 nM | CCCC[C@H](NC(=O)C(CCCS(=O)(=O)CC)Cc1cccc2ccccc12)C(=O)N[C@@H](CC(C)C)[C@@H](O)CC(CC)C(=O)NCC(C)C (single isomer, unassigned) [Example 13, (2RS,4S,5S)-5-{L-N-[(2R or S)-5-ethylsulfonyl-2-(1-naphthylmethyl)pentanoyl]norleucyl}amino-2-ethyl-4-hydroxy-7-methyloctanoic acid isobutylamide] |
| 1.4 nM | CCCC[C@H](NC(=O)[C@@H](CSc1nncs1)Cc1cccc2ccccc12)C(=O)N[C@@H](CC(C)C)[C@@H](O)CC(CC)C(=O)NCC(C)C (stereo partly drawn) [Example 5, (2RS,4S,5S),-5-{L-N-[(2S)-3-(1,3,4-thiadiazol-2-yl)thio-2-(1-naphthylmethyl)propionyl]norleucyl}amino-2-ethyl-4-hydroxy-7-methyloctanoic acid isobutylamide] |
| 0.96 nM | CCCC[C@H](NC(=O)C(Cc1cccc2ccccc12)CS(=O)(=O)c1nnnn1C)C(=O)N[C@@H](CC(C)C)[C@@H](O)C[C@H](CC)C(=O)NCC(C)C (single isomer, unassigned) [Example 4, (2S,4S,5S)-5-{L-N-[(2R or S)-3-(1-methyltetrazol-5-yl)sulfonyl-2-(1-naphthylmethyl)propionyl]norleucyl}amino-2-ethyl-4-hydroxy-7-methyloctanoic acid isobutylamide] |
| 2 nM | CCCC[C@H](NC(=O)[C@H](Cc1cccc2cccnc12)CS(=O)(=O)CC)C(=O)N[C@@H](CC(C)C)[C@@H](O)CC(CC)C(=O)NCC(C)C (mixture of isomers) [Example 10, (2RS,4S,5S)-5-{L-N-[(2S)-3-ethylsulfonyl-2-(8-quinolylmethyl)propionyl]norleucyl}amino-2-ethyl-4-hydroxy-7-methyloctanoic acid isobutylamide] |
| 1.6 nM | CCCC[C@H](NC(=O)[C@@H](CSc1ncccn1)Cc1cccc2ccccc12)C(=O)N[C@@H](CC(C)C)[C@@H](O)CC(CC)C(=O)NCC(C)C (mixture of isomers) [Example 6, (2RS,4S,5S)-5-{L-N-[(2S)-3-(pyrimidin-2-yl)thio-2-(1-naphthylmethyl)propionyl]norleucyl}amino-2-ethyl-4-hydroxy-7-methyloctanoic acid isobutylamide] |
| 2.3 nM | CCCC[C@H](NC(=O)[C@H](Cc1cccc2ccccc12)CS(=O)(=O)Cc1ccco1)C(=O)N[C@@H](CC1CCCCC1)[C@@H](O)[C@@H](O)CN1CCOCC1 [Example 47, (2S,3R,4S)-4-{L-N-[(2S)-3-furfurylsulfonyl-2-(1-naphthylmethyl)propionyl]norleucyl}amino-5-cyclohexyl-1-morpholino-2,3-pentanediol] |
| 0.83 nM | CCCC[C@H](NC(=O)[C@H](Cc1cccc2ccccc12)C[S+]([O-])c1ncccn1)C(=O)N[C@@H](CC(C)C)[C@@H](O)CC(CC)C(=O)NCC(C)C (mixture of isomers) [Example 7, (2RS,4S,5S)-5-{L-N-[(2S)-3-(pyrimidin-2-yl)sulfinyl-2-(1-naphthylmethyl)propionyl]norleucyl}amino-2-ethyl-4-hydroxy-7-methyloctanoic acid isobutylamide] |
